Results as given in patent publication US10294212B2 (CURADEV PHARMA PRIVATE LTD., priority 2013, dated 2019).
pIC50: −log10 of the molar value. Where a name gives a salt, the structure may show the parent alone.

Key:
[1] = biological target: Human indoleamine 2,3-dioxygenase1 (hIDO1) (Homo sapiens (Human), UniProt P14902); experiment: In-vitro IDO1 enzyme assay (conversion of L-tryptophan to KYN); assay type: biochemical; conditions: read-out: IC50 (IDO1) Enz
From the text: Human indoleamine 2,3-dioxygenasel (hIDO1) catalyzes the oxidative cleavage of the pyrrole ring of the indole nucleus of tryptophan to yield N-formylkynurenine which can be converted to kynurenine (KYN) by deformylation. hIDO1 with an N-terminal His tag, expressed and purified from E. coli cells was procured from either Enzo LifeScienccs, NY, USA). Unless otherwise stated, all materials were procured from Sigma Aldrich, Mo., USA.
The assay monitoring the conversion of L-tryptophan to KYN was carried out as follows. hIDO1 (10 nM) was incubated with tryptophan (30 μM) in the presence of ascorbic acid (20 mM), methylene blue (10 μM) and catalase (100 μg/mL) in potassium phosphate buffer (50 mM; pH 6.5) at 37C for 30 min. The reaction was terminated with 30% trichloroacetic acid (TCA) and further incubated at 65C for 15 min to fully convert N-formylkynurenine to KYN. The reaction mixture was then centrifuged to remove sediments and the KYN in the supernatant was estimated by UV-visible absorption spectroscopy at 360 nm using a Waters HPLC system fitted with a C-18 column or by LC/MS/MS. See, Sono, 1980, J. Biol. Chem., 255:1339-1345, which is herein incorporated by reference.
Percent inhibition at each concentration of test compounds was determined by estimating the decrease in KYN with reference to the reaction control with 1% DMSO vehicle. Data were analyzed using nonlinear regression to generate IC50 values using Graph Pad Prism® 5.

[2] = biological target: Human TDO (hTDO)-transfected CHO-K1 cells (Homo sapiens (Human), UniProt P48775); experiment: CHO-K1 cell based TDO assay; conditions: hTDO cellular assay
Chain of Human TDO (hTDO)-transfected CHO-K1 cells (P48775 whole entry): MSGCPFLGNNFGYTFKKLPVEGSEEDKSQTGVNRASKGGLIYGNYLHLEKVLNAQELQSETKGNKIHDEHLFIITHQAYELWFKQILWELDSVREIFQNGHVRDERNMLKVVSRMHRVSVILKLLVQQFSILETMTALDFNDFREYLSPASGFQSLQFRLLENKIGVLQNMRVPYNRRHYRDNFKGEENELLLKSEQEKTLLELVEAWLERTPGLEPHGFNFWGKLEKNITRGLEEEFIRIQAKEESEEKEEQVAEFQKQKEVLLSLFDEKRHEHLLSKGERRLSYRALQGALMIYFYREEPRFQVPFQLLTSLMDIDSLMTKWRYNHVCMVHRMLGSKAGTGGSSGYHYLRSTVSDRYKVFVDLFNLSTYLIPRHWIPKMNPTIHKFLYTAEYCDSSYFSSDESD
Method: Human TDO (hTDO)-transfected CHO-K1 cells were used to identify test compounds that inhibit TDO activity and reduce Kynurenine production. CHO-K1 cells (ATCC) were cultured in DMEM supplemented with sodium bicarbonate (2.1 g/L), HEPES (4.1 g/L), L-glutamine (2 mM), non-essential amino acid (84 mg/L) and fetal bovine serum (10%) and maintained at 95% humidity and 5% CO2 in a 37° C. incubator. The TDO gene (TDO2) (Accession number NM_005651.1) was purchased from Origene (USA) and stably expressed in CHO-Kl cells using the expression vector pcDNA4/Myc-HisB Hygro (Life Technologies, USA). TDO-expressing clones were identified based on the kynurenine production by the cells. Expanded clones were used for assay as described below. Unless otherwise stated, all materials were procured from Sigma.
hTDO transfected CHO-K1 cells (0.05 million/well) were seeded in a 96-well plate and maintained overnight in DMEM containing 10% FBS (200 μL) at 95% humidity and 5% CO2 in a 37° C. incubator. The following day, cells were washed and incubated with test compounds (typically 31 μM to 10 nM, final volume 150 μL) in Hanks Balanced Salt Solution (HBSS) containing 80 μM L-tryptophan for 2 hours. Supernatant (150 μL) from the cells was treated with 30% TCA ([…]) to precipitate proteins. Supernatants were further incubated at 65° C. for 15 min to convert N-formylkynurenine to kynurenine. KYN in the supernatant was measured by LC/MS/MS using an API4000 mass spectrometer (Applied Biosystems) coupled to a Shimadzu Prominence LC system fitted with a C18 column.
Percent inhibition of the test compounds was determined by measuring the decrease in KYN as compared to the reaction control (DMSO vehicle). IC50 values were calculated using Graph Pad Prism® 5 as described above.

Chain of Human indoleamine 2,3-dioxygenase1 (hIDO1) (P14902 whole entry): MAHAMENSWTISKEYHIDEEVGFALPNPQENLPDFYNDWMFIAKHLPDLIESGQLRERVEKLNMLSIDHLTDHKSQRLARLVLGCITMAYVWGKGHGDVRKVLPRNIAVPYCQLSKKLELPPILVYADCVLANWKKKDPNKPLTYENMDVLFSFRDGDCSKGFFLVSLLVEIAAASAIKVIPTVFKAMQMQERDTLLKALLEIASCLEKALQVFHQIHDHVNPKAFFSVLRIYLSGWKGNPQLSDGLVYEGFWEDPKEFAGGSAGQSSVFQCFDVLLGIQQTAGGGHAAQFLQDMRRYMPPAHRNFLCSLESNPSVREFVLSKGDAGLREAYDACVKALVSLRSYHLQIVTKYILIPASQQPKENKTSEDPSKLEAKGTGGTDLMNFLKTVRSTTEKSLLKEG

Row | Compound | pIC50 [1] | pIC50 [2]
1 | CC(C)Oc1cc2c(Nc3ccc(F)c(Cl)c3)c(N)oc2c(-c2ccccc2)n1 [Compound 107, N^3-(3-Chloro-4-fluorophenyl)-5-isopropoxy-7-phenylfuro[2,3-c]pyridine-2,3-diamine] | < 6.00 | < 5.70
2 | Nc1sc2cnccc2c1Nc1ccc(F)c(Cl)c1 [Compound 121, N^3-(3-chloro-4-fluorophenyl)thieno[2,3-c]pyridine-2,3-diamine] | < 6.00 | < 5.70
3 | Nc1sc2ccccc2c1Sc1cccc(Cl)c1 [Compound 122, 3-((3-Chlorophenyl)thio)benzo[b]thiophen-2-amine] | < 6.00 | < 5.70
4 | Nc1sc2ccccc2c1Oc1cccc(Cl)c1 [Compound 127, 3-(3-Chlorophenoxy)benzo[b]thiophen-2-amine hydrochloride] | < 6.00 | < 5.70
5 | Nc1sc2ccccc2c1Nc1ccc(F)c(C(F)(F)F)c1 [Compound 128, N^3-(4-Fluoro-3-(trifluoromethyl)phenyl)benzo[b]thiophene-2,3-diamine] | > 6.70 | < 5.70
6 | [NH]c1sc2ccc(Cl)cc2c1Nc1ccc(F)c(C(F)(F)F)c1 [Compound 129, hydrochloride] | 6.00 to 6.70 | < 5.70
7 | CN(c1ccccc1)c1c(N)sc2ccccc12 [Compound 135, N^3-Methyl-N^3-phenylbenzo[b]thiophene-2,3-diamine hydrochloride] | < 6.00 | < 5.70
8 | N#Cc1ccc2c(Nc3ccc(F)c(Cl)c3)c(N)sc2c1 [Compound 136, 2-Amino-3-((3-chloro-4-fluorophenyl)amino)benzo[b]thiophene-6-carbonitrile] | < 6.00 | < 5.70
9 | CCOC(=O)Nc1oc2cnccc2c1N(C(=O)OCC)c1ccc(F)c(Cl)c1 [Compound 142, Ethyl (3-chloro-4-fluorophenyl)(2-((ethoxycarbonyl)amino)furo-[2,3-c]pyridin-3-yl)carbamate] | < 6.00 | < 5.70
10 | COC(=O)Nc1oc2cnccc2c1Nc1ccc(F)c(Cl)c1 [Compound 143, Methyl (3-((3-chloro-4-fluorophenyl)amino)furo[2,3-c]pyridin-2-yl)carbamate] | < 6.00 | < 5.70
11 | COC(=O)Nc1oc2cnccc2c1N(C(=O)OC)c1ccc(F)c(Cl)c1 [Compound 144, Methyl (3-chloro-4-fluorophenyl)(2-((methoxycarbonyl)amino)furo[2,3-c]pyridin-3-yl)carbamate] | < 6.00 | < 5.70
12 | CCOC(=O)Nc1oc2c(C#N)nccc2c1N(C(=O)OCC)c1ccc(F)c(Cl)c1 [Compound 145, Ethyl (3-chloro-4-fluorophenyl)(7-cyano-2-((ethoxycarbonyl)amino)furo[2,3-c]pyridin-3-yl)carbamate] | < 6.00 | < 5.70
13 | CCOC(=O)Nc1oc2c(-c3cccc(C#N)c3)nccc2c1N(C(=O)OCC)c1ccc(F)c(Cl)c1 [Compound 146, Ethyl (3-chloro-4-fluorophenyl)(7-(3-cyanophenyl)-2-((ethoxycarbonyl)amino)furo[2,3-c]pyridin-3-yl)carbamate] | < 6.00 | < 5.70
14 | N#Cc1nccc2c(Nc3ccc(F)c(Cl)c3)c(NC(=O)OCc3ccccc3)oc12 [Compound 155, Benzyl (3-((3-chloro-4-fluorophenyl)amino)-7-cyanofuro[2,3-c]pyridin-2-yl)carbamate] | < 6.00 | 5.70 to 6.30
15 | CCOC(=O)Nc1oc2c(I)nccc2c1N(C(=O)OCC)c1ccc(F)c(Cl)c1 [Compound 156, Ethyl (3-chloro-4-fluorophenyl)(2-((ethoxycarbonyl)amino)-7-iodofuro[2,3-c]pyridin-3-yl)carbamate] | < 6.00 | < 5.70
16 | CCOC(=O)Nc1oc2c(-c3ccc(C(N)=O)cc3)nccc2c1Nc1ccc(F)c(Cl)c1 [Compound 157, Ethyl (7-(4-carbamoylphenyl)-3-((3-chloro-4-fluorophenyl)amino)furo[2,3-c]pyridin-2-yl)carbamate] | < 6.00 | < 5.70
17 | CCOC(=O)Nc1oc2c(C#Cc3ccc(C(N)=O)cc3)nccc2c1N(C(=O)OCC)c1ccc(F)c(Cl)c1 [Compound 160, Ethyl (7-((4-carbamoylphenyl)ethynyl)-2-((ethoxycarbonyl)amino)furo[2,3-c]pyridin-3-yl)(3-chloro-4-fluorophenyl)carbamate] | < 6.00 | < 5.70
18 | CCOC(=O)Nc1oc2c(Br)nccc2c1N(C(=O)OCC)c1ccc(F)c(Cl)c1 [Compound 161, Ethyl (7-bromo-2-((ethoxycarbonyl)amino)furo[2,3-c]pyridin-3-yl)(3-chloro-4-fluorophenyl)carbamate] | < 6.00 | < 5.70
19 | CCOC(=O)Nc1oc2c(-c3ccccc3)nccc2c1Nc1ccc(F)c(Cl)c1 [Compound 162, Ethyl (3-((3-chloro-4-fluorophenyl)amino)-7-phenylfuro[2,3-c]pyridin-2-yl)carbamate] | < 6.00 | < 5.70
20 | CCOC(=O)Nc1oc2c(-c3cc(C)nc(C)c3)nccc2c1Nc1ccc(F)c(Cl)c1 [Compound 163, Ethyl (3-((3-chloro-4-fluorophenyl)amino)-7-(2,6-dimethylpyridin-4-yl)furo[2,3-c]pyridin-2-yl)carbamate] | < 6.00 | < 5.70
21 | CCOC(=O)Nc1oc2c(-c3cc(C)nc(C)c3)nccc2c1N(C(=O)OCC)c1ccc(F)c(Cl)c1 [Compound 165, Ethyl (3-chloro-4-fluorophenyl)(7-(2,6-dimethylpyridin-4-yl)-2-((ethoxycarbonyl)amino)furo[2,3-c]pyridin-3-yl)carbamate] | < 6.00 | < 5.70
22 | CCOC(=O)Nc1oc2c(-c3ccncc3)nccc2c1N(C(=O)OCC)c1ccc(F)c(C(F)(F)F)c1 [Compound 193, Ethyl (2-((ethoxycarbonyl)amino)-7-(pyridin-4-yl)furo[2,3-c]pyridin-3-yl)(4-fluoro-3-(trifluoromethyl)phenyl)carbamate] | < 6.00 | < 5.70
23 | CCOC(=O)Nc1oc2c(C#N)nccc2c1N(C(=O)OCC)c1ccc(F)c(C(F)(F)F)c1 [Compound 194, Ethyl (7-cyano-2-((ethoxycarbonyl)amino)furo[2,3-c]pyridin-3-yl)(4-fluoro-3-(trifluoromethyl)phenyl)carbamate] | < 6.00 | < 5.70
24 | CCOC(=O)Nc1sc2ccccc2c1Nc1ccc(F)c(Cl)c1 [Compound 209, Ethyl (3-((3-chloro-4-fluorophenyl)amino)benzo[b]thiophen-2-yl)carbamate] | < 6.00 | < 5.70
25 | Cc1cc(-c2nccc3c(Nc4ccccc4N4CCCCC4)c(N)oc23)ccn1 [Compound 242, 7-(2-Methylpyridin-4-yl)-N^3-(2-(piperidin-1-yl)phenyl)furo[2,3-c]pyridine-2,3-diamine] | < 6.00 | < 5.70
26 | Cc1cc(-c2cccc3c(Nc4ccccc4)c(N)sc23)ccn1 [Compound 265, 7-(2-Methylpyridin-4-yl)-N^3-phenylbenzo[b]thiophene-2,3-diamine] | > 6.70 | 5.70 to 6.30
27 | Cc1cc(-c2cccc3c(Nc4ccc(F)cc4)c(N)sc23)ccn1 [Compound 266, N^3-(4-Fluorophenyl)-7-(2-methylpyridin-4-yl)benzo[b]thiophene-2,3-diamine] | > 6.70 | 5.70 to 6.30
